Drawing on patent publication US20250353858A1, “CONDENSED HETEROCYCLIC COMPOUNDS AS INHIBITOR OF DIACYLGLYCEROL KINASES” (BEONE MEDICINES I GMBH, priority 2023, published 2025), this text covers IC50 for 20 compounds.

Assay [1] deals with DGKζ (Homo sapiens (Human), UniProt Q13574). In words: Biochemical DGK IC50 assay (ADP-Glo, lipid micelle substrate), DGKζ. The settings on record: full length DGKζ 0.5 nM, ATP 140 μM, DAG 80 μM. The protocol: (§1) Enzymatic reactions of DGKζ, DGKα and DGKδ were performed using ADP-Glo assay with lipid micelle substrate. […] Full length DGKα (D21-10BG, SignalChem) and full length DGKδ (D23-10G, SignalChem) were purchased. Lipid micelle was prepared by dissolving DAG (Sigma, 317505-10MG) and PS (Sigma, P7769-100MG) with chloroform which was furtherly removed by rotary evaporation. The resulted product was resuspended in buffer containing 25 mM HEPES pH 7.0, 0.5 mM EDTA and 160 mM Octyl β-D glucopyranoside by vigorous mixing and ultrasonic (IID, Scientz).
Chain of DGKζ (Q13574 other isoform, or with tags, fused parts or gaps): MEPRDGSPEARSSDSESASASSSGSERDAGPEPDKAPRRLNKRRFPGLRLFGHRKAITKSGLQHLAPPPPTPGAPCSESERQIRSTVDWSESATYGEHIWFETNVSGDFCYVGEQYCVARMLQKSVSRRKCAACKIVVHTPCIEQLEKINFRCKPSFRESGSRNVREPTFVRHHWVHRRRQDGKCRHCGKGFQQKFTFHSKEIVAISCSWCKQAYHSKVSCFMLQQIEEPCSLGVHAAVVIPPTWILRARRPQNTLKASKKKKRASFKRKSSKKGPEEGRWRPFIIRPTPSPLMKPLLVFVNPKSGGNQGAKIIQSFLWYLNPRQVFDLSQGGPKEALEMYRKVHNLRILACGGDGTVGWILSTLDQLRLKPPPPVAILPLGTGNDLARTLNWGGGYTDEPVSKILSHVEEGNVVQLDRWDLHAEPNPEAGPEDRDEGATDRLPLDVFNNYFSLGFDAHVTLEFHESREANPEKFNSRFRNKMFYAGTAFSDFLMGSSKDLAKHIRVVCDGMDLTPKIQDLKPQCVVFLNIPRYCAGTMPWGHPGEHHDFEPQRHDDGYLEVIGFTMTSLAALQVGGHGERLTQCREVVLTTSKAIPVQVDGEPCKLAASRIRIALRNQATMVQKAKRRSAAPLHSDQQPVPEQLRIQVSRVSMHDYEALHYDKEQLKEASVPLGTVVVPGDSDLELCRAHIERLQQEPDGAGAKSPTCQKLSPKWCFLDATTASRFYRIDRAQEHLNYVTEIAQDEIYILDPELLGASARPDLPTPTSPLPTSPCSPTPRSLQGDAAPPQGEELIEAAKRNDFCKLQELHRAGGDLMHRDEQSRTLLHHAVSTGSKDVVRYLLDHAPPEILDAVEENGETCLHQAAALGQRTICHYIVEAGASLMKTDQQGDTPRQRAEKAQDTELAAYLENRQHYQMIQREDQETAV
(§2) The inhibition activities testing for the compound disclosed herein were carried out at room temperature in assay buffer containing 50 mM HEPES, 10 mM MgCl2, 0.01% BSA, 0.1 mM Na3VO4, 0.005% Tween-20 and 0.01 mM CaCl2. Compounds in DMSO were dispensed into wells of a black 384 well plate (Corning 4514) using D300e digital dispenser (Tecan). […] 3 μL 2× enzyme solution was added to wells. […] After 1 hour reaction, 5 μL ADP-Glo reagent (Promga V9101) was added and incubated for 40 minutes. 10 μL Kinase Detection reagent was added and incubated for 30 minutes. Luminescence was measured on a microplate reader (PHERAstar FSX, BMG labtech). The IC50s are calculated based on inhibition of enzyme activity in the presence of increasing concentrations of compounds.
Human His-TEV-DGK-zeta-pFastBac1 and human baculovirus samples was generated using the Bac-to-Bac baculovirus expression system (Invitrogen) according to the manufacturer's protocol. The DNA used for expression of DGK-zeta, have SEQ ID Nos: 1. Baculovirus amplification was achieved using infected SF9 cells at 1:2000 virus/cells ratios, and grown for 96 hours at 27° C. post-transfected.
Full length human DGKζ produced as described above, was purified from Sf9 baculovirus-infected insect cell paste. The cells were lysed using sonication method, and the lysates were clarified by centrifugation.
Background: ADP-Glo turns the ADP formed in a reaction into a luminescent signal.

In assay [2] the target is DGKα (Homo sapiens (Human), UniProt P23743). In words: Biochemical DGK IC50 assay (ADP-Glo, lipid micelle substrate), DGKα. Further: full length DGKα 7.5 nM. The settings on record: full length DGKα […], ATP 140 μM, DAG 80 μM. How it is done:
as §1, §2

One may read the IC50 as the point on the concentration scale where inhibition reaches its midpoint. The low end stands for inhibition by little substance, the high end for a need for much substance.

Chain of DGKα (P23743 whole entry): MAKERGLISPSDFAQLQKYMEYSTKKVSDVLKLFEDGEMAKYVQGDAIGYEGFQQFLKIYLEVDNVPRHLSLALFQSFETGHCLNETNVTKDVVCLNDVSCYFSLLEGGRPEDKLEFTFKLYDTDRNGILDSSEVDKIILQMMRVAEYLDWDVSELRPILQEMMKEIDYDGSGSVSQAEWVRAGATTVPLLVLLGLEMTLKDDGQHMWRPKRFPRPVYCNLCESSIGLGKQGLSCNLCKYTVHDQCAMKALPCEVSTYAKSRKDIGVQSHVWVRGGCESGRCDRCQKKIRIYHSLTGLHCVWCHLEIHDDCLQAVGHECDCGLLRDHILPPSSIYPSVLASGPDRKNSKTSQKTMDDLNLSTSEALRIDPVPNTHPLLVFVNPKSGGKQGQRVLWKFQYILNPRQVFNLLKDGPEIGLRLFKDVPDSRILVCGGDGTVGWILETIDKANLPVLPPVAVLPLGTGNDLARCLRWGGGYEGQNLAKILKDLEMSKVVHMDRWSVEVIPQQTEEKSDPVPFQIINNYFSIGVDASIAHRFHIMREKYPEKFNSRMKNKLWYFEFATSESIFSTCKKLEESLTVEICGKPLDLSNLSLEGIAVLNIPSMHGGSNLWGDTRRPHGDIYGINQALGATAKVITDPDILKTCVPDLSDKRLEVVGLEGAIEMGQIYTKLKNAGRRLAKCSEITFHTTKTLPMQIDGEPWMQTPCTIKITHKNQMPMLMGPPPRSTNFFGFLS

With `CC[C@H]1CN(C(C)c2ccn3nc(C4CC4)cc3n2)[C@H](CC)CN1c1nc(=O)n(C)c2cc(CC#N)nn12` (single isomer, unassigned) [Compound A54a], the IC50 in assay [1] is 4900 nM; in assay [2] it was 485 nM.

Turning to `CC[C@H]1CN(C(C)c2ccn3nc(C4CC4)cc3n2)[C@H](CC)CN1c1nc(=O)n(C)c2cc(CC#N)nn12` (single isomer, unassigned) [Compound A54b], the 50% inhibitory concentration (IC50) in assay [1] was found to be 19 nM; in assay [2] it was 69 nM.

For the compound `CC(c1ccc2nccnc2c1)N1C[C@H](C)N(c2cc(=O)n(C)c3cc(C#N)nn23)C[C@H]1C` (stereo partly drawn) [Compound A1, 7-((2S,5R)-2,5-dimethyl-4-(1-(quinoxalin-6-yl)ethyl)piperazin-1-yl)-4-methyl-5-oxo-4,5-dihydropyrazolo[1,5-a]pyrimidine-2-carbonitrile], the IC50 in assay [1] stood at 1000 nM; in assay [2], 810 nM.

On to `Cc1cnc2ccc(C(C)N3C[C@H](C)N(c4cc(=O)[nH]c5cc(CC#N)nn45)C[C@H]3C)cc2n1` (stereo partly drawn) [Compound A5, 2-(7-((2S,5R)-2,5-dimethyl-4-(1-(3-methylquinoxalin-6-yl)ethyl)piperazin-1-yl)-5-oxo-4,5-dihydropyrazolo[1,5-a]pyrimidin-2-yl)acetonitrile], for which the values for the half-inhibitory concentration (IC50) in assay [1] and in assay [2] were 100 nM and 116000 nM, respectively.

With `CC(c1ccc2ncc(C(F)F)nc2c1)N1C[C@H](C)N(c2cc(=O)n(C)c3cc(CC#N)nn23)C[C@H]1C` (stereo partly drawn) [Compound A6, 2-(7-((2S,5R)-4-(1-(3-(difluoromethyl)quinoxalin-6-yl)ethyl)-2,5-dimethylpiperazin-1-yl)-4-methyl-5-oxo-4,5-dihydropyrazolo[1,5-a]pyrimidin-2-yl)acetonitrile], the values for the IC50 in assay [1] and in assay [2] were 58 nM and 4640 nM, respectively.

In the case of `COc1cnc2ccc(C(C)N3C[C@H](C)N(c4cc(=O)n(C)c5cc(CC#N)nn45)C[C@H]3C)cc2n1` (stereo partly drawn) [Compound A7, 2-(7-((2S,5R)-4-(1-(3-methoxyquinoxalin-6-yl)ethyl)-2,5-dimethylpiperazin-1-yl)-4-methyl-5-oxo-4,5-dihydropyrazolo[1,5-a]pyrimidin-2-yl)acetonitrile], the IC50 in assay [1] amounted to 23 nM; in assay [2], 16900 nM.

For `CC(c1ccc2ncc(Cl)nc2c1)N1C[C@H](C)N(c2cc(=O)n(C)c3cc(CC#N)nn23)C[C@H]1C` (stereo partly drawn) [Compound A8, 2-(7-((2S,5R)-4-(1-(3-chloroquinoxalin-6-yl)ethyl)-2,5-dimethylpiperazin-1-yl)-4-methyl-5-oxo-4,5-dihydropyrazolo[1,5-a]pyrimidin-2-yl)acetonitrile], the values for the IC50 in assay [1] and in assay [2] were 42 nM and 13300 nM, respectively.

For the compound `CC(c1ccc2c(c1)OC(C)(C)CO2)N1C[C@H](C)N(c2c(C#N)c(=O)n(C)c3cc(CC#N)nn23)C[C@H]1C` (stereo partly drawn) [Compound A12, 2-(cyanomethyl)-7-((2S,5R)-4-(1-(3,3-dimethyl-2,3-dihydrobenzo[b][1,4]dioxin-6-yl)ethyl)-2,5-dimethylpiperazin-1-yl)-4-methyl-5-oxo-4,5-dihydropyrazolo[1,5-a]pyrimidine-6-carbonitrile], the values for the IC50 in assay [1] and in assay [2] were 29 nM and 6520 nM, respectively.

Take `CC(c1ccc2c(c1)OCCO2)N1C[C@H](C)N(c2cc(=O)n(C)c3cc(CC#N)nn23)C[C@H]1C` (stereo partly drawn) [Compound A13, 2-(7-((2S,5R)-4-(1-(2,3-dihydrobenzo[b][1,4]dioxin-6-yl)ethyl)-2,5-dimethylpiperazin-1-yl)-4-methyl-5-oxo-4,5-dihydropyrazolo[1,5-a]pyrimidin-2-yl)acetonitrile]: the results for the IC50 in assay [1] and in assay [2] were 53 nM and 10200 nM, respectively.

As to `CC[C@H]1CN(C(C)c2ccc(F)cc2OC)[C@H](CC)CN1c1cc(=O)n(C)c2cc(CC#N)nn12` (stereo partly drawn) [Compound A16, 2-(7-((2S,5R)-2,5-diethyl-4-(1-(4-fluoro-2-methoxyphenyl)ethyl)piperazin-1-yl)-4-methyl-5-oxo-4,5-dihydropyrazolo[1,5-a]pyrimidin-2-yl)acetonitrile], the IC50 in assay [1] is 100 nM; in assay [2] it was 27800 nM.

For `CC[C@H]1CN(C(C)c2ccc(F)cc2OC(F)F)[C@H](CC)CN1c1cc(=O)n(C)c2cc(CC#N)nn12` (stereo partly drawn) [Compound A17, 2-(7-((2S,5R)-4-(1-(2-(difluoromethoxy)-4-fluorophenyl)ethyl)-2,5-diethylpiperazin-1-yl)-4-methyl-5-oxo-4,5-dihydropyrazolo[1,5-a]pyrimidin-2-yl)acetonitrile], the concentration for half-maximal inhibition (IC50) in assay [1] was 136 nM; in assay [2] it was 56700 nM.

Take `CC[C@H]1CN(C(C)c2ccc(F)cc2C(F)F)[C@H](CC)CN1c1cc(=O)n(C)c2cc(CC#N)nn12` (stereo partly drawn) [Compound A18, 2-(7-((2S,5R)-4-(1-(2-(difluoromethyl)-4-fluorophenyl)ethyl)-2,5-diethylpiperazin-1-yl)-4-methyl-5-oxo-4,5-dihydropyrazolo[1,5-a]pyrimidin-2-yl)acetonitrile]: the IC50 came to 28 nM in assay [1] and 15700 nM in assay [2].

On to `CC[C@H]1CN(C(C)c2ccncc2)[C@H](CC)CN1c1cc(=O)n(C)n2cc(CC#N)nc12` (stereo partly drawn) [Compound A19, 2-(8-((2S,5R)-2,5-diethyl-4-(1-(pyridin-4-yl)ethyl)piperazin-1-yl)-5-methy-6-oxo-5,6-dihydroimidazo[1,2-b]pyridazin-2-yl)acetonitrile], for which the IC50 came to 7900 nM in assay [1] and 161 nM in assay [2].

For the compound `CC[C@H]1CN(C(C)c2ccc(C3CC3)cc2F)[C@H](CC)CN1c1cc(=O)n(C)c2cc(CC#N)nn12` (stereo partly drawn) [Compound A21, 2-(7-((2S,5R)-4-(1-(4-cyclopropyl-2-fluorophenyl)ethyl)-2,5-diethylpiperazin-1-yl)-4-methyl-5-oxo-4,5-dihydropyrazolo[1,5-a]pyrimidin-2-yl)acetonitrile], the results for the IC50 in assay [1] and in assay [2] were 717 nM and 2940 nM, respectively.

On to `CC[C@H]1CN(C(C)c2ccc(C3CC3)nc2)[C@H](CC)CN1c1cc(=O)n(C)c2cc(CC#N)nn12` (stereo partly drawn) [Compound A23, 2-(7-((2S,5R)-4(1-(6-cyclopropylpyridin-3-yl)ethyl)-2,5-diethylpiperazin-1-yl)-4-methyl-5-oxo-4,5-dihydropyrazolo[1,5-a]pyrimidin-2-yl)acetonitrile], for which the IC50 in assay [1] amounted to 105 nM; in assay [2], 913 nM.

For `CC[C@H]1CN(C(C)c2ccc(OC(C)C)cn2)[C@H](CC)CN1c1cc(=O)n(C)c2cc(CC#N)nn12` (stereo partly drawn) [Compound A25, 2-(7-((2S,5R)-2,5-diethyl-4-(1-(5-isopropoxypyridin-2-yl)ethyl)piperazin-1-yl)-4-methyl-5-oxo-4,5-dihydropyrazolo[1,5-a]pyrimidin-2-yl)acetonitrile], the IC50 in assay [1] was determined as 175 nM; in assay [2], 148 nM.

With `CC[C@H]1CN(C(C)c2ccc(C3CC3)nc2F)[C@H](CC)CN1c1cc(=O)n(C)c2cc(CC#N)nn12` (stereo partly drawn) [Compound A26, 2-(7-((2S,5R)-4-(1-(6-cyclopropyl-2-fluoropyridin-3-yl)ethyl)-2,5-diethylpiperazin-1-yl)-4-methyl-5-oxo-4,5-dihydropyrazolo[1,5-a]pyrimidin-2-yl)acetonitrile], the IC50 stood at 61 nM in assay [1] and 1200 nM in assay [2].

Take `CC[C@H]1CN(C(C)c2ccc3nc(C)sc3c2)[C@H](CC)CN1c1cc(=O)n(C)c2cc(CC#N)nn12` (stereo partly drawn) [Compound A31, 2-(7-((2S,5R)-2,5-diethyl-4-(1-(2-methylbenzo[d]thiazol-6-yl)ethyl)piperazin-1-yl)-4-methyl-5-oxo-4,5-dihydropyrazolo[1,5-a]pyrimidin-2-yl)acetonitrile]: the IC50 in assay [1] was 80 nM; in assay [2], 617 nM.

As for `CC[C@H]1CN(C(C)c2ccc3nc(C)sc3n2)[C@H](CC)CN1c1c(F)c(=O)n(C)c2cc(CC#N)nn12` (stereo partly drawn) [Compound A36, 2-(7-((2S,5R)-2,5-diethyl-4-(1-(2-methylthiazolo[5,4-b]pyridin-5-yl)ethyl)piperazin-1-yl)-6-fluoro-4-methyl-5-oxo-4,5-dihydropyrazolo[1,5-a]pyrimidin-2-yl)acetonitrile], the values for the IC50 in assay [1] and in assay [2] were 629 nM and 1580 nM, respectively.

On to `CCC(c1ccn2nc(C)cc2n1)N1C[C@H](C)N(c2cc(=O)n(C)c3cc(CC#N)nn23)C[C@H]1CC` (stereo partly drawn) [Compound A43, 2-(7-((2S,5R)-5-ethyl-2-methyl-4-(1-(2-methylpyrazolo [1,5-a]pyrimidin-5-yl)propyl)piperazin-1-yl)-4-methyl-5-oxo-4,5-dihydropyrazolo [1,5-a]pyrimidin-2-yl)acetonitrile], for which the IC50 in assay [1] was 266 nM; in assay [2], 267 nM.
